# Test results from ChEMBL document CHEMBL3091363, “Discovery of N-{5-[3-(3-hydroxypiperidin-1-yl)-1,2,4-oxadiazol-5-yl]-4-methyl-1,3-thiazol-2-yl}acetamide (TASP0415914) as an orally potent phosphoinositide 3-kinase γ inhibitor for the treatment of inflammatory diseases” (Bioorg Med Chem, 2013).
# pIC50: −log10 of the molar value.
# Legend:
# [1] = biological target: Phosphatidylinositol 4,5-bisphosphate 3-kinase catalytic subunit gamma isoform (Mus musculus, UniProt Q9JHG7); experiment: Inhibition of PI3Kgamma in mouse RAW264.7 cells assessed as C5a-mediated PKB/Akt phosphorylation preincubated for 30 mins followed by C5a stimulation measured after 5 mins; format: cell-based
# Phosphatidylinositol 4,5-bisphosphate 3-kinase catalytic subunit gamma isoform (Mus musculus, UniProt Q9JHG7), sequence (Q9JHG7 whole entry, canonical isoform): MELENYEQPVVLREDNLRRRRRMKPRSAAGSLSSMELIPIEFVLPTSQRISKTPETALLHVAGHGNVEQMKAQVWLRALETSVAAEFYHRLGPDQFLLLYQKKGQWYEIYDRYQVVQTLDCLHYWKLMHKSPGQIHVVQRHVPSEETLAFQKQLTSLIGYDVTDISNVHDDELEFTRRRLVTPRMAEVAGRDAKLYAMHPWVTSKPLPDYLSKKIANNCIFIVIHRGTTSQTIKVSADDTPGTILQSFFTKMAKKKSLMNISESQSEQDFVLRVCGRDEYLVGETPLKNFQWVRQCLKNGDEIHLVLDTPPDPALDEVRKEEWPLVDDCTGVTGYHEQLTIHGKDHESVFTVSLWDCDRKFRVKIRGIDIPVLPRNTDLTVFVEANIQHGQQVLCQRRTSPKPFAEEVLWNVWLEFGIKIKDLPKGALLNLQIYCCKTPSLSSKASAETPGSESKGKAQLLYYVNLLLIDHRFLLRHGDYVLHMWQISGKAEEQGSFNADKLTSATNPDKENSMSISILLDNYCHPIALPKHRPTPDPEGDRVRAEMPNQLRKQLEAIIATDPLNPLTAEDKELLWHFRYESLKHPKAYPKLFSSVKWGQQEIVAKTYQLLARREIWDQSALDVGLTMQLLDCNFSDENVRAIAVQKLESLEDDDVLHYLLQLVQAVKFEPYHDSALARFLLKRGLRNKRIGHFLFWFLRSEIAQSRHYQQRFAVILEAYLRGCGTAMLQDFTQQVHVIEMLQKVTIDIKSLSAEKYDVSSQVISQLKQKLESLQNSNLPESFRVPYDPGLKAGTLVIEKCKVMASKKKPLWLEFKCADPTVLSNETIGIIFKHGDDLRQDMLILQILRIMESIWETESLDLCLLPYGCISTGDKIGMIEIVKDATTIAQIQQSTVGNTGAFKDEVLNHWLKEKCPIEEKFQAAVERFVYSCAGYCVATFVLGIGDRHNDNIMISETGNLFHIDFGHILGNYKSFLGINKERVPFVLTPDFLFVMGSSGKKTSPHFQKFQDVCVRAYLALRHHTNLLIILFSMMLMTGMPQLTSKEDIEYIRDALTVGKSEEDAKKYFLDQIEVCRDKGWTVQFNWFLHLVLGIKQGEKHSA
# [2] = biological target: Phosphatidylinositol 4,5-bisphosphate 3-kinase catalytic subunit gamma isoform (Homo sapiens, UniProt P48736); experiment: Inhibition of human PI3Kgamma using PtdIns/PtdSer as substrate after 2 hrs by scintillation counting analysis in presence of gamma[33P]ATP
# Phosphatidylinositol 4,5-bisphosphate 3-kinase catalytic subunit gamma isoform (Homo sapiens, UniProt P48736), sequence (P48736 whole entry, canonical isoform): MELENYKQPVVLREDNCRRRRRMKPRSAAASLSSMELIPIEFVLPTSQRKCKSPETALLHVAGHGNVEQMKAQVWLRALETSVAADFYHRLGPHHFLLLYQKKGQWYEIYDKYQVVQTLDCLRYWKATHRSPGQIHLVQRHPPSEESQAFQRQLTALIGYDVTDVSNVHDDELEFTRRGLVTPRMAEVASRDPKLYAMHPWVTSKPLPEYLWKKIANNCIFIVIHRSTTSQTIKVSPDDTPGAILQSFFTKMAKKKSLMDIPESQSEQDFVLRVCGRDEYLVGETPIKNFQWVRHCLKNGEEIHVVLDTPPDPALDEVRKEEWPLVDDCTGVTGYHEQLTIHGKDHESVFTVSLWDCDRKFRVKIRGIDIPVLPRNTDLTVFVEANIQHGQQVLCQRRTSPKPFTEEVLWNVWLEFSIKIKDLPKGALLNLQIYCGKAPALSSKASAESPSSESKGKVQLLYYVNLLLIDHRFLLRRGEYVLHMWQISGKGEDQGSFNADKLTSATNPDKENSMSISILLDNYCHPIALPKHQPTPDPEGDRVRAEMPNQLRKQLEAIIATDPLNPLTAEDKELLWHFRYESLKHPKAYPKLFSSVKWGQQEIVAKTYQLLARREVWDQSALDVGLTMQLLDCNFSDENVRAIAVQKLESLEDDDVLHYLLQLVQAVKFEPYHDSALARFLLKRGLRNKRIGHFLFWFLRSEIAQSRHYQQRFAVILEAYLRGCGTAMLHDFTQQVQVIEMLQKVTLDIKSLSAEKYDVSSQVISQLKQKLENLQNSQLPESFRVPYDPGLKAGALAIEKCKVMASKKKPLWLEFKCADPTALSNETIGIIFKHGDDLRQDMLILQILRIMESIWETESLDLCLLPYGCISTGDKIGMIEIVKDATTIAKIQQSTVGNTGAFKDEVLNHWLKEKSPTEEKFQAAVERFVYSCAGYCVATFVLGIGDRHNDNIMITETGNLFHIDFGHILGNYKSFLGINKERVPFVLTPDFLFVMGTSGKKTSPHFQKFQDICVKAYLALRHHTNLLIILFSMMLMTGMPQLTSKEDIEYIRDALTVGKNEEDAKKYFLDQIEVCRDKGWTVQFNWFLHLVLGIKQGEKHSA
# Salmonella typhimurium [3] = experiment: Mutagenicity in Salmonella typhimurium TA98 up to 5000 ug/ml by Ames test in absence of rat S9 fraction; format: toxicity, organism-based; settings: salmonella enterica subsp. enterica serovar typhimurium
# Salmonella typhimurium [4] = experiment: Mutagenicity in Salmonella typhimurium TA100 up to 5000 ug/ml by Ames test in presence of rat S9 fraction; format: toxicity, organism-based; settings: salmonella enterica subsp. enterica serovar typhimurium
# Escherichia coli [5] = experiment: Mutagenicity in Escherichia coli WP2uvrA up to 5000 ug/ml by Ames test in presence of rat S9 fraction; format: toxicity, organism-based
# Salmonella typhimurium [6] = experiment: Mutagenicity in Salmonella typhimurium TA100 up to 5000 ug/ml by Ames test in absence of rat S9 fraction; format: toxicity, organism-based; settings: salmonella enterica subsp. enterica serovar typhimurium
# Salmonella typhimurium [7] = experiment: Mutagenicity in Salmonella typhimurium TA98 up to 5000 ug/ml by Ames test in presence of rat S9 fraction; format: toxicity, organism-based; settings: salmonella enterica subsp. enterica serovar typhimurium
# Escherichia coli [8] = experiment: Mutagenicity in Escherichia coli WP2uvrA up to 5000 ug/ml by Ames test in absence of rat S9 fraction; format: toxicity, organism-based
# Salmonella typhimurium [9] = experiment: Mutagenicity in Salmonella typhimurium TA100 up to 2000 ug/ml by Ames fluctuation test; format: toxicity, organism-based; settings: salmonella enterica subsp. enterica serovar typhimurium
# Salmonella typhimurium [10] = experiment: Mutagenicity in Salmonella typhimurium TA98 up to 2000 ug/ml by Ames fluctuation test; format: toxicity, organism-based; settings: salmonella enterica subsp. enterica serovar typhimurium
# [11] = Metabolic stability in rat liver microsomes assessed as compound remaining at 5 uM after 15 mins by LC-MS/MS analysis; format: ADME; settings: read-out: Stability
# [12] = Metabolic stability in rat hepatocytes assessed as compound remaining at 5 uM after 1 hr by LC-MS/MS analysis; format: ADME, cell-based, Hepatocyte; settings: read-out: Stability
# [13] = Metabolic stability in human liver microsomes assessed as compound remaining at 5 uM after 15 mins by LC-MS/MS analysis; format: ADME; settings: read-out: Stability
# [14] = Metabolic stability in human hepatocytes assessed as compound remaining at 5 uM after 1 hr by LC-MS/MS analysis; format: ADME, cell-based, Hepatocyte; settings: read-out: Stability
# [15] = Cmax in Sprague-Dawley rat at 30 mg/kg, po; format: ADME, organism-based; set-up: dose 30 mg/kg, route oral; settings: in vivo
# [16] = AUC (0 to 8 hrs) in Sprague-Dawley rat at 30 mg/kg, po; format: ADME, organism-based; set-up: time < 8 hr, dose 30 mg/kg, route oral; settings: plasma
# Cytochrome P450 2C9 = Cytochrome P450 2C9 (Homo sapiens, UniProt P11712); experiment: Inhibition of CYP2C9 (unknown origin) up to 10 uM; format: ADME
# Cytochrome P450 2C9, sequence (P11712 whole entry): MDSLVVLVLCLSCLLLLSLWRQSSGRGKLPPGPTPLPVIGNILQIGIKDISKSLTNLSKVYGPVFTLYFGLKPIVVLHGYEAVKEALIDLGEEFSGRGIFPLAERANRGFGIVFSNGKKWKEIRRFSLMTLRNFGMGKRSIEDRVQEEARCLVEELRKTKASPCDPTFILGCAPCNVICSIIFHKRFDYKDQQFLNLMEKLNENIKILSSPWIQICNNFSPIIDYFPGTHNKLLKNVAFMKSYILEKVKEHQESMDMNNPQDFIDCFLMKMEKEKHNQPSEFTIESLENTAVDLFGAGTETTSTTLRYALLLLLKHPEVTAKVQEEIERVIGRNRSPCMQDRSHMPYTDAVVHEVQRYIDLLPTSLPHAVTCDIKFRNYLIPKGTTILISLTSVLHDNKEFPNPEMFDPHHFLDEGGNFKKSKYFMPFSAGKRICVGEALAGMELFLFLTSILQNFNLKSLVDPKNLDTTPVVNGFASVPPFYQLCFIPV
# Cytochrome P450 2D6 = Cytochrome P450 2D6 (Homo sapiens, UniProt P10635); experiment: Inhibition of CYP2D6 (unknown origin) up to 10 uM; format: ADME
# Cytochrome P450 2D6, sequence (P10635 whole entry): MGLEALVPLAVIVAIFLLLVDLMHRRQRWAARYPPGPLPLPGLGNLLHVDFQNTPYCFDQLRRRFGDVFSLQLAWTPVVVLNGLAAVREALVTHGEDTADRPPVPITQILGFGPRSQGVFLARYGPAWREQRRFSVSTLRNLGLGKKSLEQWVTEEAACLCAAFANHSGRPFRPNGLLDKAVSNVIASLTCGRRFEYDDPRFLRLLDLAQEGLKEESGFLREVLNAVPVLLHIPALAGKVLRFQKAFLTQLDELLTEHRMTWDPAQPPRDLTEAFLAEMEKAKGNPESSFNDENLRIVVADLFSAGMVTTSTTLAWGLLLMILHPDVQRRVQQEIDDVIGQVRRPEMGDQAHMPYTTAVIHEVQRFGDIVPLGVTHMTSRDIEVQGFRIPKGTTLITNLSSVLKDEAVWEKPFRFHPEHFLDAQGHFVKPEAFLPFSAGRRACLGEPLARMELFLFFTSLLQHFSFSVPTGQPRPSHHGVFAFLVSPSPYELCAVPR
# Cytochrome P450 2C19 = Cytochrome P450 2C19 (Homo sapiens, UniProt P33261); experiment: Inhibition of CYP2C19 (unknown origin) up to 10 uM; format: ADME
# Cytochrome P450 2C19, sequence (P33261 whole entry): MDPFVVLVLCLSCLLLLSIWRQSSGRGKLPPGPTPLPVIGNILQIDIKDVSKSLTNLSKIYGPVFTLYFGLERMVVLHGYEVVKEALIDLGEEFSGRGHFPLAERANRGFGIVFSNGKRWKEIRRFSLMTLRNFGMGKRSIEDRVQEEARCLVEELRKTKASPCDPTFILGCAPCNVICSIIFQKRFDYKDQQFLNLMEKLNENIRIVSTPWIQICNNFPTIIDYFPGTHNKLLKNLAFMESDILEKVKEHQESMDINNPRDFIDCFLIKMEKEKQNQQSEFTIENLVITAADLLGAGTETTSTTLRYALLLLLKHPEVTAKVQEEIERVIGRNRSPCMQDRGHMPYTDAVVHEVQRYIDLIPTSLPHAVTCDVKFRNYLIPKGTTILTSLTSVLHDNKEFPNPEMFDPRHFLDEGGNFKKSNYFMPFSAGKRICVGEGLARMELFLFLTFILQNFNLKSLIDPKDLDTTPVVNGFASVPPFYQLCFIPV
# Cytochrome P450 3A4 = Cytochrome P450 3A4 (Homo sapiens, UniProt P08684); experiment: Inhibition of CYP3A4 (unknown origin) up to 10 uM; format: ADME
# Cytochrome P450 3A4, sequence (P08684 whole entry): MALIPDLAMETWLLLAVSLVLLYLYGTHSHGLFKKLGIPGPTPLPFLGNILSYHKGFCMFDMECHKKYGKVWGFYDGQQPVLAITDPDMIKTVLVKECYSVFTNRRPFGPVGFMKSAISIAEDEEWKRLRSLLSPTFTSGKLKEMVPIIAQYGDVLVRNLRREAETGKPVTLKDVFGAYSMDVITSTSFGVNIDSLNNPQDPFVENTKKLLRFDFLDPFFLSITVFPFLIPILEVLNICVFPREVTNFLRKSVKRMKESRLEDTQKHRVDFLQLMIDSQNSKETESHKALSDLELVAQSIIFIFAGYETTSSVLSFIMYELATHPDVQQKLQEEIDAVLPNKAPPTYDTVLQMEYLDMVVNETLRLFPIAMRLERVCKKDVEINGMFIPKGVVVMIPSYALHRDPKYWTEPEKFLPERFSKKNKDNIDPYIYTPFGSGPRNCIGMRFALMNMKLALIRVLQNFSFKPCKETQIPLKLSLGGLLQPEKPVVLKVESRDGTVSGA
# Mus musculus = experiment: Antiarthritic activity in po dosed DBA/1 mouse assessed as suppression of acute collagen-induced arthritis administered as bid for 14 days; format: functional, organism-based
# Cytochrome P450 1A2 = biological target: T1, Cytochrome P450 1A2 (Homo sapiens, UniProt P05177); experiment: Inhibition of CYP1A2 (unknown origin) up to 10 uM; format: ADME
# T1 sequence (P05177 whole entry): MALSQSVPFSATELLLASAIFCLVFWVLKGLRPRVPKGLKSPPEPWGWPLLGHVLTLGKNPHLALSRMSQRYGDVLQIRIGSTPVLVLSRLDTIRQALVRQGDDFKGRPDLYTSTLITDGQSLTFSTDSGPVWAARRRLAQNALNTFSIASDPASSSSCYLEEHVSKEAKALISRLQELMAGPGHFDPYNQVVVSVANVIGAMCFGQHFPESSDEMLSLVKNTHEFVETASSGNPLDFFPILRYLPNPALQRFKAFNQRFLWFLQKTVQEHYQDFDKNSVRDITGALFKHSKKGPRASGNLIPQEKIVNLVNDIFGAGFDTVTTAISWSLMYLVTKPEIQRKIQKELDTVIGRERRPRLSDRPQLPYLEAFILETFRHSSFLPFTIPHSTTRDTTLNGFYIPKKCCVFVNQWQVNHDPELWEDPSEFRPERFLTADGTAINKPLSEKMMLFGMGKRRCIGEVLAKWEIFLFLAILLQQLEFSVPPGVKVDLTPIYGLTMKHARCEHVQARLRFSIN
smiles,measurement,setting,value
CC(=O)Nc1nc(C)c(-c2nc(C3CCOC3)no2)s1 (stereo not drawn),pIC50,[1],6.25
same,pIC50,[2],7.24
CC(=O)Nc1nc(C)c(-c2cnc(C(C)(C)C)o2)s1,Activity,Salmonella typhimurium [3],Non-toxic
same,Activity,Salmonella typhimurium [4],Non-toxic
same,Activity,Escherichia coli [5],Non-toxic
same,Activity,Salmonella typhimurium [6],Non-toxic
same,Activity,Salmonella typhimurium [7],Non-toxic
same,Activity,Escherichia coli [8],Non-toxic
Cc1nc(N)sc1-c1cnc(C(C)(C)C)o1,Activity,Salmonella typhimurium [9],Toxic
same,pIC50,[2],7.09
same,Activity,Salmonella typhimurium [3],Toxic
same,Activity,Salmonella typhimurium [4],Toxic
same,Activity,Escherichia coli [5],Toxic
same,Activity,Salmonella typhimurium [10],Toxic
same,Activity,Salmonella typhimurium [6],Toxic
same,Activity,Salmonella typhimurium [7],Toxic
same,Activity,Escherichia coli [8],Toxic
Cc1nc(N)sc1-c1nc(C(C)(C)C)no1,Activity,Salmonella typhimurium [9],Non-toxic
same,pIC50,[2],7.17
same,Activity,Salmonella typhimurium [3],Non-toxic
same,Activity,Salmonella typhimurium [4],Non-toxic
same,Activity,Escherichia coli [5],Non-toxic
same,Activity,Salmonella typhimurium [10],Non-toxic
same,Activity,Salmonella typhimurium [6],Non-toxic
same,Activity,Salmonella typhimurium [7],Non-toxic
same,Activity,Escherichia coli [8],Non-toxic
CC(=O)Nc1nc(C)c(-c2nc(CCCO)no2)s1,pIC50,[2],6.92
CC(=O)Nc1nc(C)c(-c2nc(CCC(C)(C)O)no2)s1,pIC50,[2],6.69
CC(=O)Nc1nc(C)c(-c2nc(C(C)(C)C)no2)s1,pIC50,[1],6.64
same,pIC50,[2],7.85
CC(=O)Nc1nc(C)c(-c2nc(CCO)no2)s1,pIC50,[2],6.80
CC(=O)Nc1nc(C)c(-c2nc(CC(C)(C)CO)no2)s1,"remaining at 0.25 h, 5 µM",[11],94%
same,pIC50,[1],6.72
same,"remaining at 1 h, 5 µM",[12],11.3%
same,pIC50,[2],8.14
same,"remaining at 0.25 h, 5 µM",[13],102%
same,"remaining at 1 h, 5 µM",[14],9.3%
same,Cmax,[15],38 ng/mL
same,AUC(0-t) at 8 h,[16],92 ng·h/mL
CC(=O)Nc1nc(C)c(-c2nc(CC(F)(F)F)no2)s1,"remaining at 0.25 h, 5 µM",[11],72.9%
same,pIC50,[1],6.56
same,pIC50,[2],7.55
same,"remaining at 0.25 h, 5 µM",[13],79.1%
same,Cmax,[15],345 ng/mL
same,AUC(0-t) at 8 h,[16],1180 ng·h/mL
Cc1nc(N)sc1-c1nc(N2CCCC(O)C2)no1 (stereo not drawn),Activity,Salmonella typhimurium [9],Non-toxic
same,Activity,Salmonella typhimurium [3],Non-toxic
same,Activity,Salmonella typhimurium [4],Non-toxic
same,Activity,Escherichia coli [5],Non-toxic
same,Activity,Salmonella typhimurium [10],Non-toxic
same,Activity,Salmonella typhimurium [6],Non-toxic
same,Activity,Salmonella typhimurium [7],Non-toxic
same,Activity,Escherichia coli [8],Non-toxic
CC(=O)Nc1nc(C)c(-c2nc(CC(C)(C)C(C)O)no2)s1 (stereo not drawn),"remaining at 0.25 h, 5 µM",[11],91.5%
same,pIC50,[1],6.81
same,"remaining at 1 h, 5 µM",[12],20.9%
same,pIC50,[2],7.77
same,"remaining at 0.25 h, 5 µM",[13],94.1%
same,"remaining at 1 h, 5 µM",[14],35.2%
same,Cmax,[15],7800 ng/mL
same,AUC(0-t) at 8 h,[16],10900 ng·h/mL
CC(=O)Nc1nc(C)c(-c2nc(C(C)(C)CCO)no2)s1,pIC50,[2],7.21
COCC(C)(C)Cc1noc(-c2sc(NC(C)=O)nc2C)n1,pIC50,[2],7.17
CC(=O)Nc1nc(C)c(-c2nc(N3CCOCC3)no2)s1,pIC50,[2],7.00
CC(=O)Nc1nc(C)c(-c2nc(C(C)(C)CO)no2)s1,pIC50,[2],7.28
CC(=O)Nc1nc(C)c(-c2nc(N3CCCC(O)C3)no2)s1 (stereo not drawn),"remaining at 0.25 h, 5 µM",[11],97.1%
same,pIC50,[1],6.53
same,Activity,Salmonella typhimurium [9],Non-toxic
same,inhibition (INH),Cytochrome P450 2C9,Not Active
same,"remaining at 1 h, 5 µM",[12],62.1%
same,pIC50,[2],7.54
same,inhibition (INH),Cytochrome P450 2D6,Not Active
same,"remaining at 0.25 h, 5 µM",[13],96.9%
same,inhibition (INH),Cytochrome P450 2C19,Not Active
same,Activity,Salmonella typhimurium [3],Non-toxic
same,inhibition (INH),Cytochrome P450 3A4,Not Active
same,Activity,Salmonella typhimurium [4],Non-toxic
same,Activity,Mus musculus,Dose-dependent effect
same,Activity,Escherichia coli [5],Non-toxic
same,Activity,Salmonella typhimurium [10],Non-toxic
same,Activity,Salmonella typhimurium [6],Non-toxic
same,"remaining at 1 h, 5 µM",[14],75.7%
same,Activity,Salmonella typhimurium [7],Non-toxic
same,Cmax,[15],3920 ng/mL
same,Activity,Escherichia coli [8],Non-toxic
same,inhibition (INH),Cytochrome P450 1A2,Not Active
same,AUC(0-t) at 8 h,[16],10800 ng·h/mL
CC(=O)Nc1nc(C)c(-c2nc(CC(C)(C)O)no2)s1,pIC50,[2],7.17
